Results: US20150315241A1, “Antibiotic Peptides” (priority 2007, published 2015)
In brackets after ≈: the same amount, converted by molar mass. Where two headings read alike, the source gives them in different places. Where a SMILES comes first, the peptide text is derived from it. Where no end group is shown, it is not given here. [ ]: non-standard residue; d: D form. The star is where a group is joined. Orn(α-tetramethylguanidino) = CN(C)C(=N[C@@H](CCCN)C(=O)*)N(C)C; Hyp = O=C(O)[C@@H]1C[C@@H](O)CN1; hArg = N=C(N)NCCCC[C@H](N)C(=O)O; NMeL = CN[C@@H](CC(C)C)C(=O)O; Orn = NCCC[C@H](N)C(=O)O; For = O=C*

What was measured:
K. pneumonia 681 = type: cell-based, Klebsiella pneumoniae
Procedure: (§1) The minimal inhibition concentrations (MIC) of the apidaecin-derived peptides and peptide-derivatives were determined by a growth inhibition assay using a serial peptide dilution in sterilized round-bottom 96-well plates (polystyrene, U-bottom, Greiner Bio-One GmbH) with a final volume of 100 μL per well. The bacteria, e.g., E. coli BL21 A1, were grown in nutrient broth (NB, Carl Roth GmbH+Co. KG, Karlsruhe, Germany) at 37° C. over night. To each well of the 96-well plate, 50 μL of the overnight culture adjusted to 5×10^6 CFU/mL in 1% TSB were added. Lyophilized peptides and peptidomimetics were dissolved in 1% TSB (tryptic soy broth) or water to give a final concentration of 250 μg/mL. Fifty μL of the peptide or peptidomimetics solution were added to the first well of a row on the plate and mixed. Fifty μL of the first well containing the peptide solution were transferred to the second well, mixed and again 50 μL transferred to the next well and so on. Thereby, a two-fold dilution series was obtained starting at 250 μg/mL in the first well down to 120 ng/mL in the 12th well of a row giving a final peptide or peptidomimetics concentration from 125 μg/mL (well 1) to 60 ng/mL (well 12). Plates were incubated at 37° C. for 20 hrs. The absorbance was measured at 595 nm using a TECAN micro plate spectrophotometer (Tecan, Germany). All peptides and peptidomimetics were measured in triplicates. Sterilized water was used as a negative control.
(§2) The bacteria strains were tested: • Eschericha coli 1103, 10233, BL 21 AI, DC 2, • Klebsiella pneumoniae 681, • Micrococcus luteus ATCC 10240, • Mycobacterium vaccae • Bactillus subtillis 347.

E. coli 10233 = type: cell-based, Escherichia coli
Procedure: as §1, §2

[1] = tested on: S. enterica subsp. Enterica serovar. typhi G10215 ATCC 700408; type: cell-based, Salmonella enterica
Outline: (§3)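 Read-out: A595 after 20 hrs at 37° C. Bacteria from overnight NB culture, 5×10^6 CFU/mL in 1% TSB, mixed with twofold peptide dilutions (final 125 μg/mL–60 ng/mL). Triplicate wells; water negative control.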

S. typhi S5 = type: cell-based, Salmonella typhi
Outline: as §3

B. subtilis 347 = type: cell-based, Bactillus subtillis
Procedure: as §1, §2

E. coli BL 21 AI = test: Growth inhibition assay (MIC); type: cell-based, Escherichia coli; conditions: 1% TSB, 37° C., 20 hrs
Outline: (§4)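 Two-fold serial dilution in 1% TSB, final 125 μg/mL to 60 ng/mL; inoculum 5×10^6 CFU/mL (before 1:1 mixing with peptide). Incubated 20 hrs at 37° C., growth read as absorbance at 595 nm, in triplicate with sterile water as negative control.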

M. luteus ATCC 10240 = type: cell-based, Micrococcus luteus
Outline: as §4

E. coli D31 = type: cell-based, Escherichia coli
Outline: as §3

K. Pneumonia 123132 = test: Growth inhibition assay (MIC); type: cell-based, Klebsiella pneumoniae; conditions: multidrug resistant strain; 1% TSB, 37° C., 20 hrs
Outline: as §3

[2] = tested on: K. Pneumonia K6, ATCC 700603; test: Growth inhibition assay (MIC); type: cell-based, Klebsiella pneumoniae; conditions: multidrug resistant strain; 1% TSB, 37° C., 20 hrs
Outline: as §3

E. coli 45849 = test: Growth inhibition assay (MIC); type: cell-based, Escherichia coli; conditions: multidrug resistant strain; 1% TSB, 37° C., 20 hrs
Outline: as §3

E. coli 1103 = type: cell-based, Escherichia coli
Procedure: as §1, §2

[3] = tested on: R. radiobatter ATCC 15955; test: Growth inhibition assay (MIC); type: cell-based, Rhizobium radiobacter; conditions: multidrug resistant strain; 1% TSB, 37° C., 20 hrs
Outline: as §3

in vitro = in vitro ADME, mouse; conditions: 25% aqueous mouse serum, 37° C.; read-out: Half-life time
Procedure: Serum stability studies were carried out in duplicate as described by Hoffmann et al.. Briefly, 28 μL of an aqueous peptide or peptidomimetics solution (0.5 mg/mL) was added to 0.2 mL freshly pooled 25% mouse serum (Sigma-Aldrich GmbH, Taufkirchen, Germany) in water. The mixtures were incubated at 37° C. under gentle stirring. The proteins were precipitated with 40 μL of 15% aqueous TCA after incubation times of 0, 0.5, 1, 2, 4 and 6 h at 0° C. for 20 min before centrifuged (13500×G) at 4° C. for 5 min. The supernatants of all samples (240 μL) were neutralized with 1 mol/L aqueous NaOH and immediately stored at −20° C. The supernatants were analyzed by RP-HPLC using a linear acetonitrile gradient as described above with 0.1% TFA as ion pair reagent. Collected fractions of the main peaks were further analyzed by tandem mass spectrometry (MALDI-TOF/TOF-MS, 4700 Proteomics Analyzer, Applied Biosystems GmbH, Weiterstadt, Germany) in positive ion reflector mode using α-cyanohydroxycinnamic acid (50% CH3CN in 0.1% aqueous TFA) as matrix to identify the degradation products of the peptides and peptidomimetics, i.e., metabolites, at the different time points. Serum control samples consisted of 200 μL of pooled 25% mouse serum in water, which were also precipitated with 40 μL 15% aqueous TCA, as described before. Peptide reference samples consisted of 28 μL of the peptide stock solution diluted in 0.2 mL water and 40 μL of 15% aqueous trichloroacetic acid (TCA).

[4] = multidrug resistant strain, 1% TSB, 37° C., 20 hrs

Molecule | MIC K. pneumonia 681 (K. pneumonia 681; 20 h) [µg/mL] | MIC E. coli 10233 (E. coli 10233; 10233, 20 h) [µg/mL] | MIC S. enterica subsp. Enterica serovar. typhi G10215 ATCC 700408 ([1]; ATCC 700408, 20 h) [µg/mL] | MIC S. typhi S5 (S. typhi S5; S5, 20 h) [µg/mL] | MIC B. subtilis 347 (B. subtilis 347; 347, 20 h) [µg/mL] | MIC E. coli BL 21 AI (E. coli BL 21 AI) [µg/mL] | MIC M. luteus ATCC 10240 (M. luteus ATCC 10240; ATCC 10240, 20 h) [µg/mL] | MIC E. coli D31 (E. coli D31; D31, 20 h) [µg/mL] | MIC K. Pneumonia 123132 (K. Pneumonia 123132) [µg/mL] | MIC K. Pneumonia K6, ATCC 700603 [2] [µg/mL] | MIC E. coli 45849 (E. coli 45849) [µg/mL] | MIC E. coli 1103 (E. coli 1103; 1103, 20 h) [µg/mL] | other results
CC[C@H](C)[C@H](NC(=O)[C@H](Cc1ccc(O)cc1)NC(=O)[C@@H](NC(=O)[C@@H]1CCCN1C(=O)[C@H](CCCNC(=N)N)NC(=O)[C@H](CC(N)=O)NC(=O)[C@H](CC(N)=O)NC(=O)CNC=O)C(C)C)C(=O)N1CCC[C@H]1C(=O)N[C@@H](CCC(N)=O)C(=O)N1CCC[C@H]1C(=O)N[C@@H](CCCNC(=N)N)C(=O)N1CCC[C@H]1C(=O)N1CCC[C@H]1C(=O)N[C@@H](Cc1c[nH]cn1)C(=O)N1CCC[C@H]1C(=O)N[C@@H](CCCNC(=N)N)C(=O)N[C@@H](CC(C)C)C(N)=O [compound 84] (For-GNNRPVYIPQPRPPHPRL-NH2) | 62.5 (≈ 29.3 µM) | 1.95 (≈ 0.913 µM) | 0.25 (≈ 0.117 µM) | 0.25 (≈ 0.117 µM) | >125 | 1.95 (≈ 0.913 µM) | 3.91 (≈ 1.83 µM) | 1 (≈ 0.468 µM) | 32 (≈ 15 µM) | 32 (≈ 15 µM) | 0.5 (≈ 0.234 µM) |  | 
CC[C@H](C)[C@H](NC(=O)[C@H](Cc1ccc(O)cc1)NC(=O)[C@@H](NC(=O)[C@@H]1CCCN1C(=O)[C@H](CCCNC(=N)N)NC(=O)[C@H](CC(N)=O)NC(=O)[C@H](CC(N)=O)NC(=O)[C@@H](N)CCCN)C(C)C)C(=O)N1CCC[C@H]1C(=O)N[C@@H](CCCNC(=N)N)C(=O)N1C[C@H](O)C[C@H]1C(=O)N[C@@H](CCCNC(=N)N)C(=O)N1CCC[C@H]1C(=O)N1CCC[C@H]1C(=O)N[C@@H](Cc1c[nH]cn1)C(=O)N1CCC[C@H]1C(=O)N[C@@H](CCCNC(=N)N)C(=O)N[C@@H](CC(C)C)C(N)=O [compound 45] (H-[Orn]NNRPVYIPR[Hyp]RPPHPRL-NH2) | 7.81 (≈ 3.54 µM) | 1.95 to 3.91 | 2 (≈ 0.906 µM) | <0.5 | 62.5 (≈ 28.3 µM) |  |  | 8 (≈ 3.62 µM) | 4 (≈ 1.81 µM) | 4 (≈ 1.81 µM) | 1 (≈ 0.453 µM) | 7.81 (≈ 3.54 µM) | MIC R. radiobatter ATCC 15955 [3]: 0.65 µg/mL (≈ 0.294 µM)
135 (PEG3000-[Orn]NNRPVYIPRPRPPHPRL-NH2) [compound 135] |  |  |  |  |  | >125 |  |  |  |  |  |  | MIC K. pneumonia 681 (K. pneumonia 681; 1% TSB, 37° C., 20 hrs): >125 µg/mL; MIC E. coli 1103 (E. coli 1103; 1% TSB, 37° C., 20 hrs): >125 µg/mL; MIC E. coli 10233 (E. coli 10233; 1% TSB, 37° C., 20 hrs): >125 µg/mL; MIC B. subtilis 347 (B. subtilis 347; 1% TSB, 37° C., 20 hrs): >125 µg/mL; MIC M. luteus ATCC 10240 (M. luteus ATCC 10240; 1% TSB, 37° C., 20 hrs): 8 µg/mL
CC[C@H](C)[C@H](NC(=O)[C@H](Cc1ccc(O)cc1)NC(=O)[C@@H](NC(=O)[C@@H]1CCCN1C(=O)[C@H](CCCNC(=N)N)NC(=O)[C@H](CC(N)=O)NC(=O)[C@H](CC(N)=O)NC(=O)[C@H](CCCN)N=C(N(C)C)N(C)C)C(C)C)C(=O)N1CCC[C@H]1C(=O)N[C@@H](CCCNC(=N)N)C(=O)N1CCC[C@H]1C(=O)N[C@@H](CCCNC(=N)N)C(=O)N1CCC[C@H]1C(=O)N1CCC[C@H]1C(=O)N[C@@H](Cc1c[nH]cn1)C(=O)N1CCC[C@H]1C(=O)N[C@@H](CCCCNC(=N)N)C(=O)N[C@@H](CC(C)C)C(N)=O [compound 155] ({Orn(α-tetramethylguanidino)}-NNRPVYIPRPRPPHP[hArg]L-NH2) | 4 (≈ 1.74 µM) |  | 0.5 (≈ 0.217 µM) | 4 (≈ 1.74 µM) | 32 (≈ 13.9 µM) | 4 (≈ 1.74 µM) | 1 (≈ 0.434 µM) | 4 (≈ 1.74 µM) | 2 (≈ 0.868 µM) | 4 (≈ 1.74 µM) | 4 (≈ 1.74 µM) | 4 (≈ 1.74 µM) | half-life (in vitro): > 6 h
GNNRPVYIPQPRPPHPRL [compound 2] | 62.5 | 1.95 | 2 |  | >125 | 0.98 | 31.25 | 32 |  | 64 |  | 7.81 | 
H-LRPHPPRPQPIYVPRNNG-NH2 [compound 141] | >125 | >125 |  |  | >125 | >125 | >125 |  |  |  |  | >125 | 
85 (GNNRPVYIPQPRPPHPRL) [compound 85] |  |  |  |  |  | 0.24 |  |  | 16 | 64 | 2 |  | MIC K. pneumonia 681 (K. pneumonia 681; 1% TSB, 37° C., 20 hrs): 31.25 µg/mL; MIC E. coli 10233 (E. coli 10233; 1% TSB, 37° C., 20 hrs): 1.95 µg/mL; MIC S. enterica subsp. Enterica serovar. typhi G10215 ATCC 700408 [1, 4]: 0.5 µg/mL; MIC S. typhi S5 (S. typhi S5; [4]): 0.5 µg/mL; MIC B. subtilis 347 (B. subtilis 347; 1% TSB, 37° C., 20 hrs): >125 µg/mL; MIC M. luteus ATCC 10240 (M. luteus ATCC 10240; 1% TSB, 37° C., 20 hrs): 15.63 µg/mL; MIC E. coli D31 (E. coli D31; [4]): 16 µg/mL
CC[C@H](C)[C@H](NC(=O)[C@H](Cc1ccc(O)cc1)NC(=O)[C@@H](NC(=O)[C@@H]1CCCN1C(=O)[C@H](CCCNC(=N)N)NC(=O)[C@H](CC(N)=O)NC(=O)[C@H](CC(N)=O)NC(=O)CN)C(C)C)C(=O)N1CCC[C@H]1C(=O)N[C@@H](CCC(N)=O)C(=O)N1CCC[C@H]1C(=O)N[C@@H](CCCNC(=N)N)C(=O)N1CCC[C@H]1C(=O)N1CCC[C@H]1C(=O)N[C@@H](Cc1c[nH]cn1)C(=O)N1CCC[C@H]1C(=O)N[C@@H](CCCNC(=N)N)C(=O)N(C)[C@@H](CC(C)C)C(N)=O [compound 33] (H-GNNRPVYIPQPRPPHPR[NMeL]-NH2) | >125 | 15.63 (≈ 7.37 µM) | 8 (≈ 3.77 µM) |  | >125 | 15.63 (≈ 7.37 µM) | 31.25 (≈ 14.7 µM) | 32 (≈ 15.1 µM) |  | >128 |  | 62.5 (≈ 29.5 µM) | 
